US20050080090A1, “Naphthalene derivatives” (priority 1993, published 2005)
Structures can show the parent of a compound that is named as a salt.

SMILES	melting point
CN1CCN(c2cccc3ccc(N)cc23)CC1	157 to 159 °C
CN1CCN(c2cccc3ccc(NC(=O)c4ccc(Cl)cc4)cc23)CC1 [Example 8, 7-(4-Chlorobenzamido)-1-(4-methyl-1-piperazinyl)-naphthalene]	174 to 175 °C
CC(=O)Nc1cccnc1Nc1ccc2cccc(N3CCN(C)CC3)c2c1 [Example 31, 7-(3-Acetamido-2-pyridylamino)-1-(4-methyl-1-piperazinyl)-naphthalene]	110 to 114 °C (dec.)
CN1CCN(c2cccc3ccc(NC(=O)Nc4ccccc4)cc23)CC1 [Example 19, 7-(Phenylaminocarbonylamino)-1-(4-methyl-1-piperazinyl)-naphthalene]	213 to 214 °C
CN1CCN(c2cccc3ccc(-n4cnc5ncccc54)cc23)CC1 [Example 35, 7-(Imidazolo[4,5-b]pyridin-1-yl)-1-(4-methyl-1-piperazinyl)-naphthalene]	107 to 112 °C
CN1CCN(c2cccc3ccc(NCc4ccccc4)cc23)CC1 [Example 14, 7-(Benzylamino)-1-(4-methyl-1-piperazinyl)-naphthalene]	115 to 117 °C
CNS(=O)(=O)c1cccc(-c2ccc3cccc(N4CCN(C)CC4)c3c2)c1 [Example 41, 7-(3-Methylaminosulfonylphenyl)-1-(4-methyl-1-piperazinyl)naphthalene]	147.5 to 148 °C
c1cc(N2CCNCC2)c2cc(-n3nnc4ncccc43)ccc2c1 (as salt: hydrochloride)	> 250 °C
O=C(Nc1ccc2cccc(N3CCNCC3)c2c1)c1ccccc1	141.5 to 144 °C
CN1CCN(c2cccc3ccc(C(O)c4ccccc4)cc23)CC1 (stereo not drawn) [Example 44, 7-(α-Hydroxybenzyl)-1-(4-methyl-1-piperazinyl)-naphthalene]	162.5 to 163 °C
CN1CCN(c2cccc3ccc(Nc4ccc([N+](=O)[O-])cn4)cc23)CC1 [Example 27, 7-(5-Nitro-2-pyridylamino)-1-(4-methyl-1-piperazinyl)-naphthalene]	121 to 125 °C
CN1CCN(c2cccc3ccc(NC(=O)c4cccc(C#N)c4)cc23)CC1 [Example 9, 7-(3-Cyanobenzamido)-1-(4-methyl-1-piperazinyl)-naphthalene]	220 to 222 °C
CN1CCN(c2cccc3ccc(Nc4ncccc4[N+](=O)[O-])cc23)CC1 [Example 25, 7-(3-Nitro-2-pyridinylamino)-1-(4-methyl-1-piperazinyl)-naphthalene]	127.5 to 129 °C
CC(=O)Nc1ccc2cccc(N3CCN(C)CC3)c2c1	177 to 180 °C
CN1CCN(c2cccc3ccc(Nc4ncccc4NC(=O)c4ccccc4)cc23)CC1 [Example 30, 7-(3-Benzamido-2-pyridylamino)-1-(4-methyl-1-piperazinyl)-naphthalene]	205 to 207 °C
Nc1ccc2cccc(N3CCNCC3)c2c1	184 to 186 °C
CN1CCN(c2cccc3ccc(C(=O)c4ccccc4)cc23)CC1 [Example 43, 7-Benzoyl-1-(4-methyl-1-piperazinyl)naphthalene]	124 to 124.5 °C
CN1CCCC(c2cccc3ccc(N)cc23)C1 (stereo not shown)	117 to 120 °C

SMILES	melting point
CN1CCN(c2cccc3ccc(-c4cccc(NS(C)(=O)=O)c4)cc23)CC1 [Example 42, 7-(3-Methylsulfonylaminophenyl)-1-(4-methyl-1-piperazinyl)-naphthalene]	100 to 101 °C
c1cc(N2CCNCC2)c2cc(-n3cnc4ncccc43)ccc2c1 (as salt: hydrochloride)	> 250 °C
CN1CCN(c2cccc3ccc(Nc4nc(Cc5ccccc5)cs4)cc23)CC1 [Example 24, 4-Benzyl-2-[-1-(4-methyl-1-piperazinyl)-7-naphthylamino]-thiazole]	157 to 160 °C
CN1CCN(c2cccc3ccc(NC(=O)c4cccc([N+](=O)[O-])c4)cc23)CC1 [Example 4, 7-(3-Nitrobenzamido)-1-(4-methyl-1-piperazinyl)-naphthalene]	182 to 184 °C
CN1CCN(c2cccc3ccc(NC(=O)C(F)(F)F)cc23)CC1	159 to 160 °C
CCCCCC(=O)Nc1ccc2cccc(N3CCN(C)CC3)c2c1 [Example 17, 7-Hexanamido-1-(4-methyl-1-piperazinyl)-naphthalene]	144 to 146 °C
CN1CCN(c2cccc3ccc(OCc4ccc(Cl)cc4)cc23)CC1 [Example 40, 7-(4-Chlorobenzyloxy)-1-(4-methyl-1-piperazinyl)-naphthalene]	111.5 to 112 °C
Cl.O=CNc1ccc2cccc(C[C@H]3CCCN3)c2c1	223.5 to 224 °C
CN1CCC(c2cccc3ccc(N)cc23)CC1	169.5 to 171 °C
CN1CCN(c2cccc3ccc(NC(=O)c4ccc(O)cc4)cc23)CC1 [Example 10, 7-(4-Hydroxybenzamido)-1-(4-methyl-1-piperazinyl)-naphthalene]	156 to 160 °C
CN1CCN(c2cccc3ccc(NC(=O)c4ccccc4)cc23)CC1 [Example 1, 7-Benzamido-1-(4-methyl-1-piperazinyl)-naphthalene]	173 to 175 °C
CN1CCN(c2cccc3ccc(NC(=O)OCc4ccccc4)cc23)CC1 [Example 20, 7-(Benzyloxycarbonylamino)-1-(4-methyl-1-piperazinyl)-naphthalene]	143 to 144 °C
CN1CCN(c2cccc3ccc(Nc4ccc([N+](=O)[O-])cc4[N+](=O)[O-])cc23)CC1	153 to 154 °C
CN1CCN(c2cccc3ccc(NCc4cccc5ccccc45)cc23)CC1 [Example 13, 7-(1-Naphthylmethylamino)-1-(4-methyl-1-piperazinyl)-naphthalene]	140 to 141 °C
CN1CCN(c2cccc3ccc(NC(=O)c4cc([N+](=O)[O-])cc([N+](=O)[O-])c4)cc23)CC1	254 to 256 °C
CN1CCN(c2cccc3ccc(-n4cnc5ccccc54)cc23)CC1 [Example 37, 7-(Benzimidazol-1-yl)-1-(4-methyl-1-piperazinyl)-naphthalene]	148 to 150 °C
CN1CCN(c2cccc3ccc(Nc4ccccc4[N+](=O)[O-])cc23)CC1 [Example 28, 7-(2-Nitrophenylamino)-1-(4-methyl-1-piperazinyl)-naphthalene]	87 to 94 °C

Further lines, results first:

melting point	SMILES
67.5 to 68 °C	CN1CCN(c2cccc3ccc(OCc4cccc(Cl)c4)cc23)CC1 [Example 54, 7-(3-Chlorobenzyloxy)-1-(4-methyl-1-piperazinyl)-naphthalene]
134 to 148 °C	COCCN1CCN(c2cccc3ccc(NC(=O)c4ccc(Cl)cc4)cc23)CC1 (as salt: hydrochloride) [Example 65, 7-(4-Chlorobenzamido)-1-(4-methoxyethyl-1-piperazinyl)-naphthalene]
140 to 170 °C	CN1CCCC(c2cccc3ccc(NC(=O)c4ccccc4)cc23)C1 (stereo not shown) (as salt: HCl) [Example 64, 7-Benzamido-1-(1-methyl-3-piperidinyl)-naphthalene]
110 to 111 °C	CN1CCN(c2cccc3ccc(OC(=O)c4ccc(Cl)cc4)cc23)CC1 [Example 53, 7-(4-Chlorobenzoyloxy)-1-(4-methyl-1-piperazinyl)-naphthalene]
173 to 174.5 °C	CCN1CCN(c2cccc3ccc(NC(=O)c4ccc(Cl)cc4)cc23)CC1 [Example 67, 7-(4-Chlorobenzamido)-1-(4-ethyl-1-piperazinyl)-naphthalene]
82 to 82.5 °C	CN1CCN(c2cccc3ccc(OC(=O)c4ccccc4)cc23)CC1 [Example 52, 7-Benzoyloxy-1-(4-methyl-1-piperazinyl)-naphthalene]
113 to 114 °C	CN1CCN(c2cccc3ccc(OCc4ccc(Cl)c(Cl)c4)cc23)CC1 [Example 50, 7-(3,4-Dichlorobenzyloxy)-1-(4-methyl-1-piperazinyl)-naphthalene]
81.5 to 82.5 °C	CN1CCN(c2cccc3ccc(OCc4ccccc4)cc23)CC1 [Example 49, 7-(Benzyloxy)-1-(4-methyl-1-piperazinyl)-naphthalene]
70 to 71 °C	CN1CCN(c2cccc3ccc(OS(=O)(=O)C(F)(F)F)cc23)CC1 [Example 55, 7-Trifluoromethylsulfonyloxy-1-(4-methyl-1-piperazinyl)-naphthalene]
130 to 132 °C	CCCN1CCN(c2cccc3ccc(NC(=O)c4ccc(Cl)cc4)cc23)CC1 [Example 66, 7-(4-Chlorobenzamido)-1-(4-propyl-1-piperazinyl)-naphthalene]
> 250 °C	CN1CCCC(c2cccc3ccc(-n4cnc5ncccc54)cc23)C1 (stereo not shown) (as salt: HCl) [Example 63, 7-(Imidazolo[4,5-b]pyridin-1-yl)-1-(1-methyl-3-piperidinyl)-naphthalene]
72 to 74 °C	CN1CCN(c2cccc3ccc(C(=O)NCc4ccc(Cl)cc4)cc23)CC1 [Example 80, 8-(4-Methylpiperazin-1-yl)naphthalene-2-carboxylic Acid 4-chlorobenzylamide]
137 to 145 °C	CN1CCC(c2cccc3ccc(NC(=O)c4ccccc4)cc23)C1 (stereo not shown) [Example 69, 7-Benzamido-1-(1-methyl-3-pyrrolidinyl)-naphthalene]
205 to 206 °C	CN1CCN(c2cccc3ccc(OCc4ccc(C(F)(F)F)cc4)cc23)CC1 (as salt: hydrochloride) [Example 51, 7-(4-Trifluoromethylbenzyloxy)-1-(4-methyl-1-piperazinyl)-naphthalene]
236 to 238 °C	COc1cccc(-c2ccc3cccc(N4CCN(C)CC4)c3c2)c1 (as salt: hydrochloride) [Example 81, 7-(3-Methoxyphenyl)-1-(4-methylpiperazin-1-yl)naphthalene]
230 to 231.5 °C	O=C(Nc1ccc2cccc(C[C@H]3CCCN3)c2c1)c1ccc(Cl)cc1 (as salt: HCl) [Example 71, 7-(4-Chlorobenzamido)-1-(pyrrolidin-2-(R)-ylmethyl)-naphthalene]
217.5 to 218.5 °C	CN1CCN(c2cccc3ccc(C(O)(c4ccccc4)c4ccccc4)cc23)CC1 [Example 45, 7-(Diphenylhydroxymethyl)-1-(4-methyl-1-piperazinyl)-naphthalene]
